Values of other authors, collected in US11612669B2, “Disinfection method and apparatus” (University of Washington, priority 2020, dated 2023).

Tested on: microbes, viruses, and bacteria in blood plasma
Conditions: one micromolar solution, white light at 45,000 lux for more than one hour

In the case of `CN(C)c1ccc2nc3ccc(=[N+](C)C)cc-3sc2c1` [methylene blue], the “inactivation of microbes, viruses, and bacteria” value is listed as “can inactivate microbes, viruses, and bacteria”.
